We go through four compounds from patent US8933267B2, “Compounds for use as anti-ulcer agent and/or anti-Helicobacter pylori agent and pharmaceutical compositions thereof” (King Saud University, priority 2013, dated 2015).

In brackets after ≈: the same amount, converted by molar mass. Marks after values point to notes of the source that are not given here.

Series [1] has as its system H. pylori clinical isolates KA1-KA7 and ATCC 43504. The experiment in a line: Anti-Helicobacter pylori activity, disk diffusion method. Type of series: cell-based. Particulars: for susceptibility by disc diffusion (in words): all the isolates of H. pylori. The protocol:
Clinical isolates were symbolized from KA1 to KA7. Isolates were grown in Brucella agar plates (Difco, Detroit, Mich., USA) containing 10% v/v sheep serum at 37° C. Identification was carried out using Gram stain and catalase, oxidase and urea hydrolysis activities. Helicobacter pylori ATCC 43504 was used as control. Determination of the amino acid-sulfanilamide hybrid activity against H. pylori was carried out using disk diffusion method (McNulty C, Owen R., Tompkins […]., Price A., Smith G. and […]. (2002). Helicobacter pylori susceptibility testing by disc diffusion. Journal of Antimicrobial Chemotherapy, 49: 601-609). The amino acid-sulfanilamide hybrid compound was dissolved in 2% Tween (v/v), in order to obtain final concentration of 2 mg/ml.

In series [2] the test system is absolute alcohol-induced ulcer in rats. In words: Antiulcerogenic activity, absolute ethanol-induced ulcer model. It is filed as in vivo, male Wistar rats. The method, then:
Evaluation of the anti-ulcerogenic activity was carried out using absolute ethanol-induced ulcer model (Bighettia A. E., Antonio M. A., Kohna L. K., Rehdera V. L. G., Foglioa M. A., Possentia A., Vilelaa L., Carvalho J. E. (2005). Antiulcerogenic activity of a crude hydroalcoholic extract and coumarin isolated from Mikania laevigata Schultz Bip. Phytomedicine, 12, 72-77). Thirty male Wistar rats were divided into 5 groups each of 6 rats. Group 1 received the vehicle and served as control, group 2 received ranitidine (100 mg/kg) and served as standard, groups 3, 4 and 5 received the synthesized compound at doses 25, 50 and 100 mg/kg respectively.
Rats of all groups were fasted for 24 h then all medications were administered orally. One hour after treatment, the animals received an oral dose of absolute ethanol (1 ml/200 g) and then sacrificed one hour later, by ether inhalation, the stomachs were rapidly removed, opened along their greater curvature and gently rinsed under running tap water.
Number of lesions in the glandular part of the stomach were measured under an illuminated magnifying microscope (10×). Long lesions were counted and their lengths were measured. Petechial lesions were counted, and then each five petechial lesions were taken as 1 mm of ulcer.
The lesion scores: The mucosal lesions were quantified by the scoring system (0-5) 0=no damage, 1=Local edema and inflammation without ulcers; 2=One ulcer without inflammation; 3=one to two ulcers with inflammation & lesion diameter <1 cm; 4=More than two ulcers with lesion diameter 1-2 cm; 5=Sever ulceration with lesion diameter >2 cm (Morris et al., 1989).
Ulcer index: To calculate the ulcer index (mm), the sum of the total length of long ulcers and petechial lesions in each group of rats was divided by its number. The curative ratio was determined according to the formula: % Protection of control ulcer=Control UI−Test UI/Control UI×100

Series [3] concerns H. pylori clinical isolates KA1-KA7 and ATCC 43504. The experiment in a line: Minimum inhibitory concentration (MIC), broth microdilution assay. It is filed as cell-based. Particulars: Helicobacter pylori. The protocol: A total of seven clinical isolates of H. pylori were isolated from 19 biopsies received from patients diagnosed with gastritis or peptic ulcer disease at Al-Kasr Al-Ainy hospital, Cairo, Egypt. Clinical isolates were symbolized from KA1 to KA7. Isolates were grown in Brucella agar plates (Difco, Detroit, Mich., USA) containing 10% v/v sheep serum at 37° C.
Identification was carried out using Gram stain and catalase, oxidase and urea hydrolysis activities. Helicobacter pylori ATCC 43504 was used as control.
The Minimum inhibitory concentration (MIC) was carried out by the broth microdilution assay (EUCAST, 2003). A total of 100 μL of BHI broth supplemented with 10% defibrinated sheep blood inoculated with 6×10^8 H. pylori (McFarland turbidity standard 2) and 100 μL A of serial dilutions of amino acid-sulfanilamide hybrid compound dissolved in 2% Tween (v/v) was added to each well in the microplate, to reach final concentrations of 12.5; 25; 50; 100; 200; 400 and 800 μg/ml. The microplate was incubated at 37° C. under microaerophilic conditions in an atmosphere of 5-15% O2 and 5-10% CO2, for 48-72 h. After incubation, the plates were visually examined, the optical density was determined at 450 nm and each well was replicated in blood agar (Mueller-Hinton agar with 5% sheep blood), to determine the MIC.
(In general: Dilution methods test growth across graded concentrations, often in twofold steps.)

Series [4] concerns liver and kidney functions of rats. The experiment in a line: Effect on liver and kidney functions. It is filed as in vivo, Male Wister rats. To be noted: 100 mg/kg orally for 15 days. The protocol: Male Wister rats were divided into 2 equal groups each of 10 rats. The 1st group was left as a control and administrated the vehicle orally, while the 2nd group was orally administrated the synthesized compound in a dose of 100 mg/kg for 15 days. After the examination period, 6 hr after the last dose blood samples were collected from the orbital plexus of rats. Samples were left to clot at room temperature for 30 min then centrifuged at 1000 rpm for 20 min. The collected sera were used for determination of the activity of both (AST) aspirate aminotransferase and (ALT) alanine aminotransferase as liver markers. In addition, levels of blood urea, serum creatinine were also estimated as kidney markers ([…]., Al-Jaber N. A., Moses […]. and Zain M. E. (2013). Antiulcerogenic Activities of the Extracts and Isolated Flavonoids of Euphorbia cuneata Vahl. Phytother. Res. 27: 126-130).

The mark [5] stands for this setting: rat serum, 6 hr after last dose, mean ± SD, n=10.

For the compound `CC1(C)S[C@@H]2[C@H](NC(=O)[C@H](N)c3ccc(O)cc3)C(=O)N2[C@H]1C(=O)O` [Amoxicillin, amoxicillin], the Inhibition zone was 33 mm in series [1] (H. pylori ATCC 43504, disk (30 μg)); 22 mm in series [1] (H. pylori KA1, disk (30 μg)); 23 mm in series [1] (H. pylori KA2, disk (30 μg)); 24 mm in series [1] (H. pylori KA3, disk (30 μg)); 23 mm in series [1] (H. pylori KA4, disk (30 μg)); 25 mm in series [1] (H. pylori KA5, disk (30 μg)). The Inhibition zone in series [1] (H. pylori KA6, disk (30 μg)) is recorded as 26 mm; in series [1] (H. pylori KA7, disk (30 μg)) it was 27 mm. Besides, the “susceptibility by disc diffusion (in words)” value (from here on “susceptibility”) in series [1] was “sensitive”.
As usually defined, the MIC is the lowest concentration that inhibits growth of the organism. Low values mean a more susceptible organism, high ones a less susceptible organism. Take `CC(C)CC(NCC(=O)Nc1ccc(S(N)(=O)=O)cc1)C(=O)O` (stereo not shown) [Compound 5, 4-Methyl-2-[2-oxo-2-(4-sulfamoylphenylamino)ethylamino]pentanoic acid]: the “% protection (of control ulcer)” value was determined as 16.7% in series [2] (oral 25 mg/kg), 59% in series [2] (oral 50 mg/kg) and 66.7% in series [2] (oral 100 mg/kg). Moreover, the “score (lesion score 0-5)” value in series [2] (oral 25 mg/kg) was 2.2; in series [2] (oral 50 mg/kg), 1.6; in series [2] (oral 100 mg/kg), 1.4. Moreover, the no of ulcers in series [2] (oral 25 mg/kg, mean, n=6) is given as 11.1*; in series [2] (oral 50 mg/kg, mean, n=6), 8**; in series [2] (oral 100 mg/kg, mean, n=6), 6.2***. Also, in series [2] (oral 25-100 mg/kg), the “anti-ulcerogenic activity (in words)” value was “potent dose dependent anti-ulcerogenic activity”. The Inhibition zone in series [1] (H. pylori ATCC 43504, disk (2 mg)) amounted to 16 mm; in series [1] (H. pylori KA1, disk (2 mg)) it was 18 mm; in series [1] (H. pylori KA2, disk (2 mg)), 15 mm; in series [1] (H. pylori KA3, disk (2 mg)), 16 mm; in series [1] (H. pylori KA4, disk (2 mg)), 15 mm; in series [1] (H. pylori KA5, disk (2 mg)), 15 mm. Besides, the Inhibition zone in series [1] (H. pylori KA6, disk (2 mg)) was found to be 17 mm; in series [1] (H. pylori KA7, disk (2 mg)), 19 mm. Also, in series [1], the “susceptibility” value is reported as “sensitive”. The minimal inhibitory concentration (MIC) in series [3] (ATCC43504, H. pylori ATCC 43504) worked out at 50 µg/mL (≈ 146 µM); in series [3] (ATCC43504, H. pylori KA1), 50 µg/mL (≈ 146 µM); in series [3] (ATCC43504, H. pylori KA2), 50 µg/mL (≈ 146 µM); in series [3] (ATCC43504, H. pylori KA3), 50 µg/mL (≈ 146 µM); in series [3] (ATCC43504, H. pylori KA4) it was 50 µg/mL (≈ 146 µM); in series [3] (ATCC43504, H. pylori KA5), 50 µg/mL (≈ 146 µM). Also, the MIC worked out at 25 µg/mL (≈ 72.8 µM) in series [3] (ATCC43504, H. pylori KA6) and 12.5 µg/mL (≈ 36.4 µM) in series [3] (ATCC43504, H. pylori KA7). For the same compound, the ALT in series [4] (setting [5]) is 38.67 ± 0.22 U/l. In addition, the AST in series [4] (setting [5]) was determined as 63.23 ± 0.39 U/l. In series [4] (setting [5]), this compound had a Creatinine of 0.85 ± 0.02 mg/dL. In addition, the hepatotoxic manifestation result in series [4] (rats) is on record as “didn't reveal hepatotoxic manifestation”. In series [4] (rats), the nephrotoxic manifestations result is reported as “no apparent nephrotoxic manifestations”. In addition, the “Blood Urea” value in series [4] (rats, 6 hr after last dose, mean ± SD, n=10) worked out at 65.50 ± 1.9 mg/dL.
Turning to `CC[C@H]1OC(=O)[C@H](C)[C@@H](O[C@H]2C[C@@](C)(OC)[C@@H](O)[C@H](C)O2)[C@H](C)[C@@H](O[C@@H]2O[C@H](C)C[C@H](N(C)C)[C@H]2O)[C@](C)(O)C[C@@H](C)C(=O)[C@H](C)[C@@H](O)[C@]1(C)O` [Erythromycin, erythromycin], the Inhibition zone in series [1] (H. pylori ATCC 43504, disk (15 μg)) came out at 29 mm; in series [1] (H. pylori KA1, disk (15 μg)), 21 mm; in series [1] (H. pylori KA2, disk (15 μg)), 22 mm; in series [1] (H. pylori KA3, disk (15 μg)), 24 mm; in series [1] (H. pylori KA4, disk (15 μg)) it was 23 mm; in series [1] (H. pylori KA5, disk (15 μg)) it was 21 mm. Further, the Inhibition zone in series [1] (H. pylori KA6, disk (15 μg)) was 25 mm; in series [1] (H. pylori KA7, disk (15 μg)) it was 24 mm. For the same compound, the “susceptibility” value in series [1] is on record as “sensitive”.
As to `CNC(=C[N+](=O)[O-])NCCSCc1ccc(CN(C)C)o1` [Ranitidine, ranitidine, reference compound], in series [2] (oral 100 mg/kg), the “% protection (of control ulcer)” value was determined as 45.05% and the “score (lesion score 0-5)” value amounted to 2.2. Besides, in series [2] (oral 100 mg/kg, mean, n=6), the no of ulcers was 6.9*** and the ulcer index is on record as 6.0* mm.
